From ChEMBL document CHEMBL3797155, “The 5-aromatic hydantoin-3-acetate derivatives as inhibitors of the tumour multidrug resistance efflux pump P-glycoprotein (ABCB1): Synthesis, crystallographic and biological studies” (Bioorg Med Chem, 2016)

What was measured:
Format in all cases: cell-based
[1] = molecular target: T1, ATP-dependent translocase ABCB1 (Homo sapiens, UniProt P08183); experiment: Inhibition of human MDR1 expressed in mouse L5178 cells assessed as rhodamine-123 accumulation measured as fluorescence activity ratio at 20 uM after 20 mins by flow cytometry relative to control; settings: l5178, 20 min
T1 sequence (P08183 whole entry): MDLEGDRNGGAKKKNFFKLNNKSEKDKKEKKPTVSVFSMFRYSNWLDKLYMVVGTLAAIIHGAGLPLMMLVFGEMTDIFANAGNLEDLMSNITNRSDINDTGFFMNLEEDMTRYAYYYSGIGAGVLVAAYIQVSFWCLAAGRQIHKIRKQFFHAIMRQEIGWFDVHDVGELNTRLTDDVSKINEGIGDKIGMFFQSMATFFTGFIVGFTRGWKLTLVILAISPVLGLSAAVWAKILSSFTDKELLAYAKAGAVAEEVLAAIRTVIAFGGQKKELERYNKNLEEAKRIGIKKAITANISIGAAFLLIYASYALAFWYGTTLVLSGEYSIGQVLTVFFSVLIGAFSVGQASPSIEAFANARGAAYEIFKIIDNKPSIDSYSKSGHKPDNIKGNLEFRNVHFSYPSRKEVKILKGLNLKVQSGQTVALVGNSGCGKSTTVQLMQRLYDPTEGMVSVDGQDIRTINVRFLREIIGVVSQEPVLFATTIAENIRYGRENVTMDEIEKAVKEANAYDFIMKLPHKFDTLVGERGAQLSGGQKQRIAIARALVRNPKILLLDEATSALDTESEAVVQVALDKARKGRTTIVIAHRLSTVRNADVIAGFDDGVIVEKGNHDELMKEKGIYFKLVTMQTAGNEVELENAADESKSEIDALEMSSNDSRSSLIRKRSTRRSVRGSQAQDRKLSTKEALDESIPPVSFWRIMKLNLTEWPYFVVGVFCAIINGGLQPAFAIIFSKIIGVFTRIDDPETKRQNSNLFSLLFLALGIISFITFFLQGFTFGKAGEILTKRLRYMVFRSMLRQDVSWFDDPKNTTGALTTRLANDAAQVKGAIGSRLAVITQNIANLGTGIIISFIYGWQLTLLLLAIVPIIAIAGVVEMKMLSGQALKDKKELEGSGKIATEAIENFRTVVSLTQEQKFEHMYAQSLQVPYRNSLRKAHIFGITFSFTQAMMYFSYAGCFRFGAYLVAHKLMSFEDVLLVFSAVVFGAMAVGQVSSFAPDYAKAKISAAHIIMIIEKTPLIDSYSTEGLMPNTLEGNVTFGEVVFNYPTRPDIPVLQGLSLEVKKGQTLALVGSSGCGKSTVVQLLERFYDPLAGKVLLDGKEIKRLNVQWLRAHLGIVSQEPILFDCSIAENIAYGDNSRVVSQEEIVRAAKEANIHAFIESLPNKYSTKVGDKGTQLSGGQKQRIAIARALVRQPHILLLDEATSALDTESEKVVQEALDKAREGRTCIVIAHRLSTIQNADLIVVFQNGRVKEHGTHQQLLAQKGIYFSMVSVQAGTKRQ

[2] = molecular target: T1, ATP-dependent translocase ABCB1; experiment: Inhibition of human MDR1 expressed in mouse L5178 cells assessed as rhodamine-123 accumulation measured as fluorescence activity ratio at 2 uM after 20 mins by flow cytometry relative to control; settings: l5178, 20 min
[3] = Cytotoxicity against sensitive mouse L5178 cells after 24 hrs by MTT assay; settings: l5178, 24 h
[4] = Cytotoxicity against multidrug resistant mouse L5178 cells after 24 hrs by MTT assay; settings: l5178, 24 h

Structure (SMILES)	Ratio [1]	Ratio [2]	Activity [3] [µM]	Activity [4] [µM]
COC(=O)CN1C(=O)N(CC(O)CN2CCN(c3ccccc3)CC2)C(c2ccccc2)(c2ccccc2)C1=O (centres undefined)	90.43	72.64	33	67
COc1ccccc1N1CCN(CC(O)CN2C(=O)N(CC(=O)O)C(=O)C2(c2ccccc2)c2ccccc2)CC1 (centres undefined)	0.86	0.84	> 100	> 100
COC(=O)CN1C(=O)N(CCCN2CCN(c3ccccc3)CC2)C(c2ccccc2)(c2ccccc2)C1=O	116.27	89.34	40	> 100
COC(=O)CN1C(=O)N(CCCCN2CCN(c3ccccc3)CC2)C(c2ccccc2)(c2ccccc2)C1=O	99.82	77.15	13	26
COc1ccccc1N1CCN(CCCCN2C(=O)N(CC(=O)O)C(=O)C2(c2ccccc2)c2ccccc2)CC1	2.04	1	> 100	> 100
COC(=O)CN1C(=O)N(CCCCN2CCN(c3ccccc3F)CC2)C2(C1=O)c1ccccc1-c1ccccc12	72.04	35.38	58	84
O=C(O)CN1C(=O)N(CCCCN2CCN(C(=O)c3ccco3)CC2)C2(C1=O)c1ccccc1-c1ccccc12	0.69	0.68	> 100	> 100
COC(=O)CN1C(=O)N(CCCCN2CCN(c3ccccc3)CC2)C2(C1=O)c1ccccc1-c1ccccc12	70.19	21.61	53	> 100
COC(=O)CN1C(=O)N(CCCCN2CCN(c3cccc(Cl)c3Cl)CC2)C(c2ccccc2)(c2ccccc2)C1=O	98.11	132.85	18	40
COC(=O)CN1C(=O)N(CCCCN2CCN(C(=O)c3ccco3)CC2)C2(C1=O)c1ccccc1-c1ccccc12	24.89	1.86	59	63
COC(=O)CN1C(=O)N(CCCCN2CCN(c3ccc(F)cc3)CC2)C2(C1=O)c1ccccc1-c1ccccc12	71.11	19.4	40	56
COC(=O)CN1C(=O)N(CCCCN2CCN(c3ccccc3F)CC2)C(c2ccccc2)(c2ccccc2)C1=O	99.09	102.74	> 100	> 100
COc1ccc(CCN(C)CCCC(C#N)(c2ccc(OC)c(OC)c2)C(C)C)cc1OC (centres undefined) [VERAPAMIL]	17.59	–	–	–
